8 compounds from ChEMBL document CHEMBL1201862, “PubChem BioAssay data set” (2004) can be followed below.

Some test systems named below: RXF 393; A498; UACC-257; DU-145; HOP-92; HCC 2998; A549; HT-29; SNB-19; MDA-N; NCI-H23; BT-549; LOX IMVI; PC-3; OVCAR-8; SW-620; T47D; SK-MEL-5; EKVX.
Common to all, as to test: growth of human tumour cells (NCI), 48 h

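Results reflect a 48-hour exposure of cells in 96-well plates to compound at five concentrations. GI50 = concentration required for 50% inhibition of growth.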 The source made the active and inactive calls. Rule as the data show it: active = GI50 up to about 1.1 µM and inactive = higher.

`COc1cc(OC)cc(-c2nc(O)c3ccccc3n2)c1`: the GI50 in the assay with RXF 393 is 29.8 µM (inactive); with A498, 31.1 µM (inactive); in the assay with UACC-257 it was > 100 µM (inactive); in the assay on DU-145 it was > 100 µM (inactive); with HOP-92 it was > 100 µM (inactive); with HCC 2998, > 100 µM (inactive). In addition, the GI50 is > 100 µM (inactive) with A549; > 100 µM (inactive) with HT-29; 49 µM (inactive) in the assay with SNB-19; > 100 µM (inactive) in the assay on MDA-N; > 100 µM (inactive) in the assay on NCI-H23; > 100 µM (inactive) in the assay with BT-549. Also, the GI50 with LOX IMVI is > 100 µM (inactive); with PC-3, > 100 µM (inactive); with OVCAR-8 it was 24.6 µM (inactive); with SW-620, > 100 µM (inactive); in the assay with T47D it was > 100 µM (inactive); in the assay with SK-MEL-5, > 100 µM (inactive). Moreover, the GI50 with EKVX is > 100 µM (inactive).
Consider `CC(=O)Oc1cc2c(cc1OC(C)=O)[C@H]1CC[C@]3(C)[C@@H](OC(C)=O)CC[C@H]3[C@@H]1CC2`, for which the GI50 is 4.5 µM (inactive) in the assay with RXF 393; 11.8 µM (inactive) with A498; 9.66 µM (inactive) in the assay with UACC-257; 3.15 µM (inactive) in the assay with DU-145; 1.1 µM (active) with HOP-92; 7.71 µM (inactive) in the assay with HCC 2998. In addition, the GI50 with A549 is 7.96 µM (inactive); in the assay with HT-29, 5.14 µM (inactive); with SNB-19, 6.65 µM (inactive); in the assay on MDA-N it was 0.773 µM (active); with NCI-H23, 10.2 µM (inactive); in the assay on BT-549 it was 1.99 µM (inactive). Besides, the GI50 is 2.92 µM (inactive) in the assay with LOX IMVI; 9.29 µM (inactive) in the assay with PC-3; 6.7 µM (inactive) with OVCAR-8; 1.9 µM (inactive) in the assay on SW-620; 7.26 µM (inactive) in the assay on T47D; 5.62 µM (inactive) in the assay with SK-MEL-5. Moreover, the GI50 with EKVX is 2.56 µM (inactive).
Consider `COc1ccccc1/C(=N\OCCC(=O)O)c1cccs1`, for which the GI50 with RXF 393, in the assay with A498, in the assay with UACC-257, in the assay on DU-145, with HOP-92 and with HCC 2998 was > 100 µM (inactive) each time. Also, the GI50 in the assay on A549, in the assay with HT-29, in the assay with SNB-19, in the assay on MDA-N, with NCI-H23 and in the assay on BT-549 was > 100 µM (inactive) in each case. Besides, the GI50 in the assay with LOX IMVI, in the assay with PC-3, with OVCAR-8, in the assay with SW-620, with T47D and in the assay on SK-MEL-5 was > 100 µM (inactive) in each case. In the assay on EKVX, the GI50 is > 100 µM (inactive).
Turning to `CC(=O)c1cccc2c1CC1(C2)Cc2ccc3c(c2C1=O)CCC3` (configuration not stated), the GI50 was 33 µM (inactive) in the assay with RXF 393; > 100 µM (inactive) with A498; 14.8 µM (inactive) in the assay on UACC-257; 79.1 µM (inactive) in the assay on DU-145; 12.6 µM (inactive) in the assay with HOP-92; 15 µM (inactive) in the assay with HCC 2998. Further, the GI50 is 23.3 µM (inactive) in the assay on A549; 23.1 µM (inactive) with HT-29; > 100 µM (inactive) in the assay on SNB-19; 49.1 µM (inactive) in the assay on MDA-N; 67.8 µM (inactive) in the assay on NCI-H23; 82.2 µM (inactive) with BT-549. The GI50 in the assay with LOX IMVI is 27.5 µM (inactive); with PC-3 it was 32.5 µM (inactive); in the assay on OVCAR-8 it was 57.1 µM (inactive); with SW-620, 55.2 µM (inactive); in the assay on T47D, 29.1 µM (inactive); in the assay on SK-MEL-5, 14 µM (inactive). Besides, the GI50 in the assay with EKVX was 17.9 µM (inactive).
As to `O=[N+]([O-])c1cccc2nc3ccccc3c(NCCC[N+]3([O-])CCOCC3)c12`, the GI50 is 0.106 µM (active) in the assay with RXF 393; 0.164 µM (active) with A498; 0.351 µM (active) in the assay on UACC-257; 0.206 µM (active) in the assay on DU-145; 0.0935 µM (active) with HOP-92; 0.0128 µM (active) in the assay on HCC 2998. The GI50 in the assay with A549 is 0.0959 µM (active); with HT-29, 0.0859 µM (active); in the assay on SNB-19, 0.28 µM (active); with MDA-N it was 0.13 µM (active); in the assay on NCI-H23, 0.0791 µM (active); with BT-549, 0.373 µM (active). Besides, the GI50 in the assay on LOX IMVI was 0.281 µM (active); with PC-3 it was 0.177 µM (active); with OVCAR-8 it was 0.21 µM (active); in the assay with SW-620, 0.131 µM (active); in the assay with T47D it was 0.171 µM (active); in the assay with SK-MEL-5, 0.0782 µM (active). In the assay with EKVX, the GI50 is 0.177 µM (active).
For the compound `CC1CNC(c2ccc(COc3ccc(C4=NC(C)CN4)cc3)cc2)=N1` (configuration not stated), the GI50 is 58.6 µM (inactive) in the assay on RXF 393; > 100 µM (inactive) in the assay with A498; 16.9 µM (inactive) in the assay with UACC-257; > 100 µM (inactive) with DU-145; > 100 µM (inactive) in the assay on HOP-92; 46.5 µM (inactive) in the assay on HCC 2998. Moreover, the GI50 with A549 was 21.2 µM (inactive); with HT-29, > 100 µM (inactive); with SNB-19, 50.1 µM (inactive); in the assay with MDA-N, 82.2 µM (inactive); in the assay with NCI-H23, 53.3 µM (inactive); with BT-549 it was > 100 µM (inactive). Further, the GI50 in the assay on LOX IMVI is > 100 µM (inactive); in the assay on PC-3, 32.1 µM (inactive); in the assay with OVCAR-8, 72.6 µM (inactive); with SW-620 it was 67.9 µM (inactive); with T47D, 15.5 µM (inactive); with SK-MEL-5, 28.6 µM (inactive). For the same compound, the GI50 in the assay with EKVX is > 100 µM (inactive).
For `CCCCCC(/C=C/C1CCC(=O)C1)OCOCCOC` (configuration not stated), the GI50 with RXF 393 was 34 µM (inactive); in the assay with A498, 48.2 µM (inactive); in the assay on UACC-257 it was 26.9 µM (inactive); in the assay on DU-145, > 100 µM (inactive); in the assay on HOP-92 it was 24.2 µM (inactive); in the assay with HCC 2998 it was 64.4 µM (inactive). Further, the GI50 was 59.7 µM (inactive) with A549; 23.4 µM (inactive) in the assay with HT-29; > 53.3 µM (inactive) in the assay on SNB-19; 40.2 µM (inactive) with MDA-N; 55.2 µM (inactive) with NCI-H23; 27.9 µM (inactive) in the assay on BT-549. Further, the GI50 is 24.3 µM (inactive) in the assay on LOX IMVI; 42.1 µM (inactive) in the assay with PC-3; 33.9 µM (inactive) with OVCAR-8; 29.8 µM (inactive) in the assay on SW-620; 52.1 µM (inactive) in the assay on T47D; 47.8 µM (inactive) in the assay with SK-MEL-5. In the assay with EKVX, the GI50 was 54.1 µM (inactive).
For the compound `COCn1c2ccc(OC(C)=O)cc2c2c(=O)oc(C)nc21`, the GI50 is > 100 µM (inactive) in the assay with RXF 393; 50.4 µM (inactive) in the assay on A498; > 100 µM (inactive) in the assay on UACC-257; > 100 µM (inactive) in the assay on DU-145; > 100 µM (inactive) in the assay with HOP-92; > 100 µM (inactive) with HCC 2998. Besides, the GI50 is > 100 µM (inactive) in the assay with A549; 0.497 µM (active) with HT-29; > 100 µM (inactive) with SNB-19; > 100 µM (inactive) in the assay on MDA-N; > 100 µM (inactive) in the assay with NCI-H23; > 100 µM (inactive) with BT-549. Also, the GI50 in the assay with LOX IMVI, in the assay with PC-3, in the assay with OVCAR-8, with SW-620, in the assay with T47D and with SK-MEL-5 was > 100 µM (inactive) throughout. Further, the GI50 in the assay on EKVX is > 100 µM (inactive).
